Where two headings read alike, the source gives them in different places.
Columns and labels:
[1] = test system: larvae of the mustard beetle (Phaedon cochleariae); test: Phaedon test (PHAECO spray treatment); type: in vivo; details: 168 h, 100 g/ha, after 7 days, read-out: activity in %
In short: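 Mortality of mustard beetle larvae, expressed as percent killed (100% all, 0% none), assessed 7 days after spraying. Spray liquor made from compound in acetone plus dimethylformamide with alkylaryl polyglycol ether, diluted in emulsifier-containing water to the desired concentration.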

[2] = test system: caterpillars of the armyworm (Spodoptera frugiperda); test: Spodoptera frugiperda test (SPODFR spray treatment); type: in vivo; details: 168 h, after 7 days; for pest or weed control at 100 g/ha: read-out: activity in %
In short: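 Percent caterpillar mortality read 7 days after infestation (0% none killed, 100% all killed). Treatment was a spray of the acetone/DMF/emulsifier formulation, water-diluted to test concentration, onto Zea mays leaf discs, allowed to dry before larvae were added.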

[3] = log P determination by HPLC on reversed-phase columns (EEC Directive 79/831 Annex V.A8); type: physicochemical; details: pH 2.7
In short: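 Calibration used unbranched alkan-2-ones of 3 to 16 carbons with known log P, values interpolated linearly from retention times between neighbouring standards. Acidic-range LC-MS run at pH 2.7, eluents aqueous and acetonitrile formic acid 0.1%, linear gradient 10% to 95% acetonitrile.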

[4] = reversed-phase C18 HPLC column, HPLC on reversed-phase columns (C 18), EEC Directive 79/831 Annex V.A8, read-out: logP

SMILES | pest or weed control at 100 g/ha [1] | pest or weed control at 100 g/ha [2] | chromatographic logP [3] | pest or weed control at 20 g/ha [2] | chromatographic logP [3, 4]
Cc1cc(C#N)cc(C(=O)NC(C)C)c1NC(=O)c1cc(Cn2nncc2C(F)(F)F)nn1-c1ncccc1Cl [Example 216] | 100% | 100% | 2.63 |  | 
Cc1cc(Cl)cc(C(=O)NC(C)C2CC2)c1NC(=O)c1cc(Cn2cc(C(F)(C(F)(F)F)C(F)(F)F)nn2)nn1-c1ncccc1Cl (stereo not drawn) [Example 226] | 100% |  |  | 100% | 4.15
Cc1cc(Cl)cc(C(=O)NC(C)C)c1NC(=O)c1cc(Cn2cc(C(F)(C(F)(F)F)C(F)(F)F)nn2)nn1-c1ncccc1Cl [Example 227] | 100% | 100% | 3.85 |  | 
Cc1cc(Cl)cc(C(=O)NCC2CC2)c1NC(=O)c1cc(Cn2cc(C(F)(C(F)(F)F)C(F)(F)F)nn2)nn1-c1ncccc1Cl [Example 229] | 100% | 100% |  |  | 3.91
CNC(=O)c1cc(I)cc(C)c1NC(=O)c1cc(Cn2cc(C(F)(C(F)(F)F)C(F)(F)F)nn2)nn1-c1ncccc1Cl [Example 233] | 100% | 100% | 3.59 |  | 
Cc1cc(I)cc(C(=O)NC(C)C2CC2)c1NC(=O)c1cc(Cn2cc(C(F)(C(F)(F)F)C(F)(F)F)nn2)nn1-c1ncccc1Cl (stereo not drawn) [Example 234] | 100% | 100% |  |  | 4.38
Cc1cc(I)cc(C(=O)NC(C)C)c1NC(=O)c1cc(Cn2cc(C(F)(C(F)(F)F)C(F)(F)F)nn2)nn1-c1ncccc1Cl [Example 235] | 100% | 100% | 4.09 |  | 
Cc1cc(I)cc(C(=O)NC(C)(C)C)c1NC(=O)c1cc(Cn2cc(C(F)(C(F)(F)F)C(F)(F)F)nn2)nn1-c1ncccc1Cl [Example 236] | 100% | 100% |  |  | 4.43
Cc1cc(I)cc(C(=O)NCC2CC2)c1NC(=O)c1cc(Cn2cc(C(F)(C(F)(F)F)C(F)(F)F)nn2)nn1-c1ncccc1Cl [Example 237] | 100% | 100% |  |  | 4.14
Cc1cc(I)cc(C(=O)NC2CC2)c1NC(=O)c1cc(Cn2cc(C(F)(C(F)(F)F)C(F)(F)F)nn2)nn1-c1ncccc1Cl [Example 240] | 100% | 100% | 3.83 |  | 
CC(NC(=O)c1cc(Cl)cc(Cl)c1NC(=O)c1cc(Cn2cc(C(F)(C(F)(F)F)C(F)(F)F)nn2)nn1-c1ncccc1Cl)C1CC1 (stereo not drawn) [Example 242] | 100% | 100% |  |  | 4.08
CC(C)NC(=O)c1cc(Cl)cc(Cl)c1NC(=O)c1cc(Cn2cc(C(F)(C(F)(F)F)C(F)(F)F)nn2)nn1-c1ncccc1Cl [Example 243] | 100% | 100% | 3.79 |  | 
CC(C)(C)NC(=O)c1cc(Cl)cc(Cl)c1NC(=O)c1cc(Cn2cc(C(F)(C(F)(F)F)C(F)(F)F)nn2)nn1-c1ncccc1Cl [Example 244] | 100% | 100% |  |  | 4.13
O=C(NCC1CC1)c1cc(Cl)cc(Cl)c1NC(=O)c1cc(Cn2cc(C(F)(C(F)(F)F)C(F)(F)F)nn2)nn1-c1ncccc1Cl [Example 245] | 100% | 100% |  |  | 3.84
O=C(NC1CC1)c1cc(Cl)cc(Cl)c1NC(=O)c1cc(Cn2cc(C(F)(C(F)(F)F)C(F)(F)F)nn2)nn1-c1ncccc1Cl [Example 248] | 100% | 100% | 3.56 |  | 
Cc1cc(C#N)cc(C(=O)NC(C)C2CC2)c1NC(=O)c1cc(Cn2ncc(C(F)(C(F)(F)F)C(F)(F)F)n2)nn1-c1ncccc1Cl (stereo not drawn) [Example 250] | 100% | 100% |  |  | 4.2
Cc1cc(C#N)cc(C(=O)NC(C)C)c1NC(=O)c1cc(Cn2ncc(C(F)(C(F)(F)F)C(F)(F)F)n2)nn1-c1ncccc1Cl [Example 251] | 100% | 100% |  |  | 3.89
Cc1cc(C#N)cc(C(=O)NC(C)(C)C)c1NC(=O)c1cc(Cn2ncc(C(F)(C(F)(F)F)C(F)(F)F)n2)nn1-c1ncccc1Cl [Example 252] | 100% | 100% |  |  | 4.21
Cc1cc(C#N)cc(C(=O)NCC2CC2)c1NC(=O)c1cc(Cn2ncc(C(F)(C(F)(F)F)C(F)(F)F)n2)nn1-c1ncccc1Cl [Example 253] | 100% | 100% |  |  | 3.95

SMILES | pest or weed control at 100 g/ha [1] | pest or weed control at 100 g/ha [2] | chromatographic logP [3] | pest or weed control at 20 g/ha [2] | chromatographic logP [3, 4]
Cc1cc(C#N)cc(C(=O)NC2CC2)c1NC(=O)c1cc(Cn2ncc(C(F)(C(F)(F)F)C(F)(F)F)n2)nn1-c1ncccc1Cl [Example 256] | 100% | 100% |  |  | 3.63
CNC(=O)c1cc(Cl)cc(C)c1NC(=O)c1cc(Cn2ncc(C(F)(C(F)(F)F)C(F)(F)F)n2)nn1-c1ncccc1Cl [Example 257] | 100% | 100% | 3.76 |  | 
Cc1cc(Cl)cc(C(=O)NC(C)C2CC2)c1NC(=O)c1cc(Cn2ncc(C(F)(C(F)(F)F)C(F)(F)F)n2)nn1-c1ncccc1Cl (stereo not drawn) [Example 258] | 100% | 100% |  |  | 4.61
Cc1cc(Cl)cc(C(=O)NC(C)C)c1NC(=O)c1cc(Cn2ncc(C(F)(C(F)(F)F)C(F)(F)F)n2)nn1-c1ncccc1Cl [Example 259] | 100% | 100% | 4.3 |  | 
Cc1cc(Cl)cc(C(=O)NC(C)(C)C)c1NC(=O)c1cc(Cn2ncc(C(F)(C(F)(F)F)C(F)(F)F)n2)nn1-c1ncccc1Cl [Example 260] | 100% | 100% |  |  | 4.64
Cc1cc(Cl)cc(C(=O)NCC2CC2)c1NC(=O)c1cc(Cn2ncc(C(F)(C(F)(F)F)C(F)(F)F)n2)nn1-c1ncccc1Cl [Example 261] | 100% | 100% |  |  | 4.34
Cc1cc(Cl)cc(C(=O)NC2CC2)c1NC(=O)c1cc(Cn2ncc(C(F)(C(F)(F)F)C(F)(F)F)n2)nn1-c1ncccc1Cl [Example 264] | 100% | 100% | 4.01 |  | 
Cc1cc(I)cc(C(=O)NC(C)C2CC2)c1NC(=O)c1cc(Cn2ncc(C(F)(C(F)(F)F)C(F)(F)F)n2)nn1-c1ncccc1Cl (stereo not drawn) [Example 266] | 100% | 100% |  |  | 4.86
Cc1cc(I)cc(C(=O)NC(C)C)c1NC(=O)c1cc(Cn2ncc(C(F)(C(F)(F)F)C(F)(F)F)n2)nn1-c1ncccc1Cl [Example 267] | 100% | 100% | 4.51 |  | 
Cc1cc(I)cc(C(=O)NC(C)(C)C)c1NC(=O)c1cc(Cn2ncc(C(F)(C(F)(F)F)C(F)(F)F)n2)nn1-c1ncccc1Cl [Example 268] | 100% | 100% |  |  | 4.9
Cc1cc(I)cc(C(=O)NCC2CC2)c1NC(=O)c1cc(Cn2ncc(C(F)(C(F)(F)F)C(F)(F)F)n2)nn1-c1ncccc1Cl [Example 269] | 100% | 100% |  |  | 4.58
CSC[C@H](C)NC(=O)c1cc(I)cc(C)c1NC(=O)c1cc(Cn2ncc(C(F)(C(F)(F)F)C(F)(F)F)n2)nn1-c1ncccc1Cl [Example 270] | 100% |  |  | 100% | 4.73
Cc1cc(I)cc(C(=O)NC2CC2)c1NC(=O)c1cc(Cn2ncc(C(F)(C(F)(F)F)C(F)(F)F)n2)nn1-c1ncccc1Cl [Example 272] | 100% |  | 4.26 | 100% | 
CC(NC(=O)c1cc(Cl)cc(Cl)c1NC(=O)c1cc(Cn2ncc(C(F)(C(F)(F)F)C(F)(F)F)n2)nn1-c1ncccc1Cl)C1CC1 (stereo not drawn) [Example 274] | 100% |  |  | 100% | 4.49
CC(C)NC(=O)c1cc(Cl)cc(Cl)c1NC(=O)c1cc(Cn2ncc(C(F)(C(F)(F)F)C(F)(F)F)n2)nn1-c1ncccc1Cl [Example 275] | 100% | 100% | 4.17 |  | 
CC(C)(C)NC(=O)c1cc(Cl)cc(Cl)c1NC(=O)c1cc(Cn2ncc(C(F)(C(F)(F)F)C(F)(F)F)n2)nn1-c1ncccc1Cl [Example 276] | 100% | 100% |  |  | 4.53
O=C(NCC1CC1)c1cc(Cl)cc(Cl)c1NC(=O)c1cc(Cn2ncc(C(F)(C(F)(F)F)C(F)(F)F)n2)nn1-c1ncccc1Cl [Example 277] | 100% | 100% |  |  | 4.23
CSC[C@H](C)NC(=O)c1cc(Cl)cc(Cl)c1NC(=O)c1cc(Cn2ncc(C(F)(C(F)(F)F)C(F)(F)F)n2)nn1-c1ncccc1Cl [Example 278] | 100% | 100% |  |  | 4.38
